Experimental findings from ChEMBL document CHEMBL1201862, “PubChem BioAssay data set” (2004) are described below.

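Dose response: 5 concentrations. Exposure: 48 h. Format: 96-well plates. Endpoint: linear interpolation; highest concentration if not reached. At the GI50, growth is halved.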 Activity calls are given as the source filed them. Rule as the data show it: active = GI50 up to about 1.1 µM and inactive = higher. Some results are limits rather than exact numbers.

Some test systems named below: MCF7; NCI/ADR-RES; OVCAR-8; RPMI-8226; BT-549; T47D; ACHN; NCI-H23; SF-539; NCI-H226; HCC 2998; COLO 205; SW-620; MDA-MB-435; HL-60; NCI-H522; LOX IMVI; HOP-62; SK-MEL-2; UO-31.
What all share (test): growth of human tumour cells (NCI), 48 h

Consider `CS(=O)(=O)Nc1ccc(Nc2c3ccccc3nc3ccccc23)cc1`, for which the GI50 with MCF7 is 1.07 µM (active); with NCI/ADR-RES it was 7.28 µM (inactive); with OVCAR-8, 2.77 µM (inactive); in the experiment with RPMI-8226, 2.04 µM (inactive); in the experiment with BT-549, 11 µM (inactive); in the experiment on T47D, 2.41 µM (inactive). The GI50 in the experiment on ACHN was 0.381 µM (active); in the experiment with NCI-H23 it was 4.06 µM (inactive); in the experiment on SF-539, 3.4 µM (inactive); in the experiment with NCI-H226 it was 1.04 µM (active); with HCC 2998 it was 4.25 µM (inactive); with COLO 205, 1.69 µM (inactive). For the same molecule, the GI50 in the experiment with SW-620 was 1.11 µM (active); in the experiment with MDA-MB-435 it was 7.87 µM (inactive); with HL-60, 0.389 µM (active); in the experiment with NCI-H522 it was 2.06 µM (inactive); in the experiment with LOX IMVI, 1.26 µM (inactive); with HOP-62, 1.08 µM (active). The GI50 was 5.16 µM (inactive) with SK-MEL-2 and 2.23 µM (inactive) in the experiment with UO-31.
For `C=C1CC2(OC1=O)c1ccccc1CCc1ccccc12`, the GI50 in the experiment on MCF7 is 4.59 µM (inactive); in the experiment with NCI/ADR-RES, 1.63 µM (inactive); with OVCAR-8 it was 4.48 µM (inactive); in the experiment with RPMI-8226, 2.07 µM (inactive); with BT-549, 1.58 µM (inactive); in the experiment on T47D, 2.07 µM (inactive). Moreover, the GI50 in the experiment on ACHN was 1.71 µM (inactive); with NCI-H23 it was 9.95 µM (inactive); in the experiment on SF-539, 2.13 µM (inactive); in the experiment on NCI-H226, 13.2 µM (inactive); in the experiment on HCC 2998, 2.54 µM (inactive); in the experiment with COLO 205, 1.91 µM (inactive). The GI50 in the experiment on SW-620 was 1.59 µM (inactive); in the experiment on MDA-MB-435, 2.48 µM (inactive); in the experiment with HL-60 it was 0.729 µM (active); in the experiment with NCI-H522, 1.71 µM (inactive); in the experiment on LOX IMVI, 1.46 µM (inactive); in the experiment with HOP-62, 26.1 µM (inactive). For the same molecule, the GI50 in the experiment with SK-MEL-2 was 5.62 µM (inactive); with UO-31 it was 9.82 µM (inactive).
As to `CCC1OC(=O)CC(O)C(C)C(OC2OC(C)CC(N(C)C)C2O)C(CC=O)CC(C)C(=O)/C=C/C2(C)OC2C1C` (stereo not drawn), the GI50 in the experiment with MCF7 was 5.47 µM (inactive); in the experiment with NCI/ADR-RES, 31.2 µM (inactive); in the experiment with OVCAR-8 it was 22.4 µM (inactive); with RPMI-8226 it was 27 µM (inactive); in the experiment on BT-549, 15.1 µM (inactive); in the experiment on T47D, 19.9 µM (inactive). For the same molecule, the GI50 with ACHN is 19.6 µM (inactive); in the experiment with NCI-H23, 19 µM (inactive); in the experiment with SF-539 it was 6.62 µM (inactive); in the experiment with NCI-H226 it was 16.3 µM (inactive); in the experiment with HCC 2998 it was > 100 µM (inactive); with COLO 205, 16.9 µM (inactive). Further, the GI50 with SW-620 was 17 µM (inactive); in the experiment on MDA-MB-435 it was 16.8 µM (inactive); in the experiment with HL-60, 12.8 µM (inactive); with NCI-H522, 15 µM (inactive); in the experiment on LOX IMVI it was 17.3 µM (inactive); with HOP-62, 25.2 µM (inactive). The results for the GI50 with SK-MEL-2 and in the experiment on UO-31 were 45.2 µM (inactive) and 23.3 µM (inactive), respectively.
Take `S=c1sc2c(s1)SCc1cccc(n1)CSc1sc(=S)sc1SCc1cccc(n1)CS2`: the GI50 in the experiment on MCF7 was > 10 µM (inactive); in the experiment on NCI/ADR-RES, > 100 µM (inactive); in the experiment with OVCAR-8, > 100 µM (inactive); in the experiment with RPMI-8226 it was > 100 µM (inactive); in the experiment on BT-549, > 100 µM (inactive); with T47D, > 100 µM (inactive). In addition, the GI50 with ACHN, with NCI-H23, with SF-539, with NCI-H226, in the experiment on HCC 2998 and in the experiment with COLO 205 was > 100 µM (inactive) in each case. Also, the GI50 with SW-620, in the experiment on MDA-MB-435, with HL-60, in the experiment on NCI-H522, with LOX IMVI and with HOP-62 was > 100 µM (inactive) each time. For the same molecule, the GI50 in the experiment with SK-MEL-2 and in the experiment on UO-31 was > 100 µM (inactive) each time.
Consider `N#Cc1c(-c2ccc([N+](=O)[O-])cc2)cc(-c2ccc(Nc3ccnc4cc(Cl)ccc34)cc2)nc1N`, for which the GI50 is 1.61 µM (inactive) with MCF7; 4.12 µM (inactive) in the experiment on NCI/ADR-RES; 2.19 µM (inactive) with OVCAR-8; 5.02 µM (inactive) with RPMI-8226; 51.1 µM (inactive) with BT-549; 4.81 µM (inactive) with T47D. For the same molecule, the GI50 was 30.5 µM (inactive) with ACHN; 25.2 µM (inactive) with NCI-H23; 31.1 µM (inactive) in the experiment with SF-539; > 72.1 µM (inactive) in the experiment on NCI-H226; 11.4 µM (inactive) in the experiment on HCC 2998; 25.5 µM (inactive) with COLO 205. Further, the GI50 with SW-620 was > 21.7 µM (inactive); with MDA-MB-435, 3.35 µM (inactive); in the experiment with HL-60 it was 12.4 µM (inactive); in the experiment on NCI-H522, 3.85 µM (inactive); in the experiment on LOX IMVI, 1.45 µM (inactive); with HOP-62, 9.46 µM (inactive). Also, the GI50 in the experiment with SK-MEL-2 is 14.7 µM (inactive); in the experiment with UO-31, 26.5 µM (inactive).
Regarding `CCCc1nnc2sc(COc3cc(Cl)c(OCc4nn5c(CCC)nnc5s4)cc3Cl)nn12`, the GI50 in the experiment on MCF7 is 23.6 µM (inactive); in the experiment on NCI/ADR-RES, 5.9 µM (inactive); with OVCAR-8, 27.4 µM (inactive); with RPMI-8226, 0.0885 µM (active); in the experiment with BT-549, 29.2 µM (inactive); in the experiment on T47D it was 15.2 µM (inactive). The GI50 with ACHN was 25.4 µM (inactive); in the experiment with NCI-H23 it was 0.748 µM (active); with SF-539 it was 47.8 µM (inactive); in the experiment with NCI-H226 it was > 100 µM (inactive); with HCC 2998, 77.8 µM (inactive); in the experiment with COLO 205, 50.5 µM (inactive). The GI50 in the experiment on SW-620 is > 100 µM (inactive); with MDA-MB-435, 35.3 µM (inactive); in the experiment on HL-60, 25.6 µM (inactive); in the experiment on NCI-H522, 27.3 µM (inactive); in the experiment with LOX IMVI it was 37.1 µM (inactive); with HOP-62, 38.4 µM (inactive). The GI50 in the experiment with SK-MEL-2 was > 100 µM (inactive).
For the molecule `COc1ccc(CN(Cc2ccc(OC)cc2)C(=O)CC2(O)C=CCC2)cc1` (stereo not drawn), the GI50 with MCF7 was 43.9 µM (inactive); with NCI/ADR-RES it was 43.1 µM (inactive); with OVCAR-8, 37.5 µM (inactive); in the experiment with RPMI-8226 it was 31.6 µM (inactive); in the experiment on BT-549 it was > 100 µM (inactive); in the experiment on T47D, 39.4 µM (inactive). The GI50 in the experiment with ACHN is > 100 µM (inactive); in the experiment with NCI-H23, > 100 µM (inactive); in the experiment with SF-539 it was > 100 µM (inactive); in the experiment with NCI-H226, > 100 µM (inactive); with HCC 2998, 69.2 µM (inactive); with COLO 205 it was 40 µM (inactive). Moreover, the GI50 was > 100 µM (inactive) with SW-620; 71.4 µM (inactive) with MDA-MB-435; 34.8 µM (inactive) in the experiment with HL-60; 32.7 µM (inactive) in the experiment on NCI-H522; > 100 µM (inactive) with LOX IMVI; > 100 µM (inactive) in the experiment with HOP-62. Also, the GI50 was 56.6 µM (inactive) with SK-MEL-2 and 44.9 µM (inactive) in the experiment with UO-31.
In the case of `CCCCCCCC(CC(=O)NC(CO)C(=O)NC(CO)CC(C)C)OC(=O)CC(CCCCCCC)OC(=O)CC(CCCCCCC)OC1OC(C)C(O)C(OC2OC(C)C(O)C(O)C2O)C1O` (stereo not drawn), the GI50 was 0.614 µM (active) in the experiment on MCF7; 17.9 µM (inactive) in the experiment on NCI/ADR-RES; 16.3 µM (inactive) in the experiment on OVCAR-8; 2.37 µM (inactive) in the experiment with RPMI-8226; 14.5 µM (inactive) in the experiment on BT-549; 10.9 µM (inactive) with T47D. The GI50 in the experiment with ACHN was 12.2 µM (inactive); in the experiment on NCI-H23 it was 14.3 µM (inactive); with SF-539 it was 11.7 µM (inactive); with NCI-H226 it was 16.6 µM (inactive); with HCC 2998 it was 1.52 µM (inactive); with COLO 205, 8.87 µM (inactive). The GI50 was 15.7 µM (inactive) in the experiment on SW-620; 6.52 µM (inactive) in the experiment on MDA-MB-435; 3.26 µM (inactive) with HL-60; 13 µM (inactive) in the experiment on NCI-H522; 5.28 µM (inactive) with LOX IMVI; 18.9 µM (inactive) in the experiment with HOP-62. In addition, the GI50 in the experiment with SK-MEL-2 is 3.76 µM (inactive); in the experiment on UO-31, 16.6 µM (inactive).
As for `CC(=O)[C@@H](C)C(=O)N1C(=O)OC[C@@]12[C@@H]1CC[C@@H](C1)C2(C)C`, the GI50 in the experiment with MCF7, with NCI/ADR-RES, with OVCAR-8, in the experiment with RPMI-8226, in the experiment on BT-549 and in the experiment on T47D was > 100 µM (inactive) each time. The GI50 in the experiment with ACHN, in the experiment with NCI-H23, in the experiment on SF-539, with NCI-H226, in the experiment on HCC 2998 and with COLO 205 was > 100 µM (inactive) each time. Further, the GI50 in the experiment with SW-620, in the experiment with MDA-MB-435, with HL-60, in the experiment on NCI-H522, with LOX IMVI and with HOP-62 was > 100 µM (inactive) in each case. The GI50 in the experiment on SK-MEL-2 and with UO-31 was > 100 µM (inactive) throughout.
In the case of `Cc1cc(=O)oc2c(CN3CCCCC3)c(O)ccc12`, the GI50 in the experiment with MCF7, in the experiment on NCI/ADR-RES, in the experiment with OVCAR-8, in the experiment on RPMI-8226, with BT-549 and in the experiment on T47D was > 100 µM (inactive) throughout. The GI50 with ACHN, in the experiment with NCI-H23, in the experiment with SF-539, with NCI-H226, in the experiment on HCC 2998 and with COLO 205 was > 100 µM (inactive) throughout. Further, the GI50 in the experiment on SW-620, in the experiment with MDA-MB-435, in the experiment with HL-60, with NCI-H522, in the experiment with LOX IMVI and with HOP-62 was > 100 µM (inactive) each time. The GI50 in the experiment with SK-MEL-2 was > 100 µM (inactive).
